Results published in patent US11123334B2 (priority 2018, dated 2021).

How the values were obtained:
rhesus monkeys [1] = assay: Heroin-induced respiratory depression, head plethysmograph, seated monkeys; settings: for antagonism of respiratory-depressant effects of heroin: day after (24 hours after) antagonist administration; for duration in reversing and protecting against heroin-induced respiratory depression: FIG. 2
rhesus monkeys [2] = assay: Intravenous drug self-administration (heroin or cocaine), fixed-ratio 30 schedule; type: in vivo; settings: for duration of action on responding for heroin (in words): after a single administration; for responding for cocaine: naltrexone 0.032 mg/kg, MCAM 0.32 mg/kg, cocaine 0.032 mg/kg/infusion; for responding for heroin: session following s.c. pretreatment, heroin 0.0032 mg/kg/infusion
μ opioid receptors = molecular target: T1, μ opioid receptors (Mus musculus, UniProt P42866); settings: cited from earlier work
T1 construct: host or cells: live mouse (endogenous receptor)
T1 sequence (P42866 whole entry): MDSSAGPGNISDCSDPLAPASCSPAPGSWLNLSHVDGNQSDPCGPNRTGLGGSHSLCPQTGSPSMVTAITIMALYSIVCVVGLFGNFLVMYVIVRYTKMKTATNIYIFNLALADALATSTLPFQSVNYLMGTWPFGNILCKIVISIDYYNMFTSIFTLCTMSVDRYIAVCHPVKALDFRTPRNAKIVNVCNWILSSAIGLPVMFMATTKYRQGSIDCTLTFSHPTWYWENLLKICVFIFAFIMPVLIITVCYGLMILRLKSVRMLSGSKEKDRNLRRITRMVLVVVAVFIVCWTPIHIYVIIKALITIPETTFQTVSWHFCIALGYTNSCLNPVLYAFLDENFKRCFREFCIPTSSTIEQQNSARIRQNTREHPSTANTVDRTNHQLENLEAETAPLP

For CC(=O)Oc1ccc2c3c1O[C@H]1[C@@H](OC(C)=O)C=C[C@H]4[C@@H](C2)N(C)CC[C@@]341 [heroin, reference compound], the “decrease of respiration by heroin” value (rhesus monkeys [1]; monkeys breathing air, largest heroin dose tested, s.c.) was ≤ 70 % of control.
For O=C1CC[C@@]2(O)[C@H]3Cc4ccc(O)c5c4[C@@]2(CCN3CC2CC2)[C@H]1O5 [naltrexone, reference compound], the “duration of action on responding for heroin (in words)” value (“duration of action on responding” below) (rhesus monkeys [2]) was “less than one day”, the “duration of action on responding” value (rhesus monkeys [2]; listed as Naltrexone) was “returning to baseline levels the next day” and the responding for cocaine (rhesus monkeys [2]) was “did not affect responding for cocaine”. For the same compound, the responding for heroin (rhesus monkeys [2]) was “decreased responding for heroin” and the “antagonism of respiratory-depressant effects of heroin” value (rhesus monkeys [1]) was “no longer effective”.
In the case of Cc1ccc(/C=C/C(=O)N[C@@]23CCC(=O)[C@@H]4Oc5c(O)ccc6c5[C@@]42CCN(CC2CC2)[C@@H]3C6)cc1 [MCAM, methocinnamox], the antagonism of morphine (μ opioid receptors; 48 hours later) is given as “marked antagonism of morphine”, the “effect on antinociception of 1000 mg/kg morphine” value (μ opioid receptors; one hour after administration) is given as “prevented any antinociceptive effect” and the “duration of action on responding” value (rhesus monkeys [2]) is given as “more than one week”. For the same compound, the “time responding for heroin remained decreased” value (rhesus monkeys [2]; after a single injection of antagonist) was “up to 8 days”, the responding for cocaine (rhesus monkeys [2]) was “did not affect responding for cocaine” and the responding for heroin (rhesus monkeys [2]) was “decreased responding for heroin”. For the same compound, the “reversal of opioid agonist side effects (respiratory depression)” value (rhesus monkeys [1]; 0.32 mg/kg subcutaneously, monkeys received heroin 0.1-1.0 mg/kg) was “reversed”, the “respiratory-depressant effects of heroin after antagonist” value (rhesus monkeys [1]; 4 days after administration of antagonist) was “not affected” and the “duration in reversing and protecting against heroin-induced respiratory depression” value (rhesus monkeys [1]) was “long duration”. The “antagonism of respiratory-depressant effects of heroin” value (rhesus monkeys [1]) was “continued to antagonize”.
For C=CCN1CC[C@]23c4c5ccc(O)c4O[C@H]2C(=O)CC[C@@]3(O)[C@H]1C5 [naloxone, reference compound], the “duration in reversing and protecting against heroin-induced respiratory depression” value (rhesus monkeys [1]) was “short duration”.
